Experimental data reported in patent publication US7304046B2, “Phosphoramide compounds” (priority 1999, dated 2007).
Where two headings read alike, the source gives them in different places.

Experiments:
MDA231 (breast) = assay: Growth inhibition, MTT assay, MDA231; format: cell-based, human; conditions: read-out: IC50 growth inhibitory activity
Description: (§1) The growth inhibitory properties of representative compounds of the invention were also determined by evaluating their growth inhibitory activity against a series of human tumor cell lines using a 72-h drug exposure. Cell counts were measured using the MTT assay.

PC-3 (prostate) = assay: Growth inhibition, MTT assay, PC-3; format: cell-based, human; conditions: PC-3, 72-h drug exposure, read-out: IC50 growth inhibitory activity
Description: as §1

HT-29 (colon) = assay: Growth inhibition, MTT assay, HT-29; format: cell-based, human; conditions: HT-29, 72-h drug exposure, read-out: IC50 growth inhibitory activity
Description: as §1

PaCa-2 (pancreas) = assay: Growth inhibition, MTT assay, PaCa-2; format: cell-based, human; conditions: PaCa-2, 72-h drug exposure; for IC50: read-out: IC50 growth inhibitory activity
Description: as §1

A498 (kidney) = assay: Growth inhibition, MTT assay, A498; format: cell-based, human; conditions: A498, 72-h drug exposure, read-out: IC50 growth inhibitory activity
Description: as §1

A549 (lung) = assay: Growth inhibition, MTT assay, A549; format: cell-based, human; conditions: A549, 72-h drug exposure, read-out: IC50 growth inhibitory activity
Description: as §1

UMUC3 (bladder) = assay: Growth inhibition, MTT assay, UMUC3; format: cell-based, human; conditions: UMUC3, 72-h drug exposure; for IC50: read-out: IC50 growth inhibitory activity
Description: as §1

IGROV (ovarian) = assay: Growth inhibition, MTT assay, IGROV; format: cell-based, human; conditions: 72-h drug exposure, read-out: IC50 growth inhibitory activity
Description: as §1

HT-29 cells = assay: Test A: in vitro cytotoxicity, clonogenic survival of HT-29 cells; format: cell-based, human; conditions: 2 h drug treatment, colonies after 10 days, concentration at which there is a 1% cell survival
Description: (§2) Test A: In Vitro Cytotoxicity (Clonogenic Survival of HT-29 and BE Cells):
(§3) The human colon carcinoma cell line HT-29 was obtained from the American Type Culture Collection (ATCC), and the BE cell line was provided by Dr. D. Ross, University of Colorado. A modification of the procedure described by Miribelli et al Cancer Research, 1985, 45, 32–39 was used to determine the clonogenic survival of the cells. HT-29 and BE cells in exponential growth were suspended in unsupplemented Eagles MEM medium (10 mL) at a final density of 1.7–2×10^5 cells/mL. Unsupplemented medium contains Minimum Essential Medium (Gibco) and HEPES (0.02 M). The drug stock solutions (0.1–40 mM) were prepared using either ethanol or dimethyl sulfoxide as solvent. The maximum amount of DMSO or ethanol used in the drug treatments was 1% of the total volume. Appropriate volumes (6.5 to 100 μL) of the drug stock solution were added to five vials of the cell suspensions, to give five different final drug concentrations, and 100 μL of solvent was added to a sixth vial for a control. The treated cells were incubated for 2 h (37° C., 5% CO2). The cells were spun down and rinsed three times with supplemented medium (3 mL) and then diluted in 5 mL of supplemented medium. Supplemented medium is prepared by adding Fetal Bovine Serum (10%), gentamicin (0.05 mg/mL), L-glutamine (0.03 mg/mL), and sodium pyruvate (0.1 mM) to unsupplemented medium. The cells were counted using a Coulter Counter and then plated at 2–3 different densities for each drug concentration and incubated for 10 days. The colonies were stained with 0.5% crystal violet in 95% ethanol and those colonies comprised of 50 or more cells were counted using a microscope and pen-style counter. The LC99 of each compound (the concentration at which there is a 1% cell survival) was determined by plotting the log surviving fraction vs. drug concentration.

BE cells = assay: Test A: in vitro cytotoxicity, clonogenic survival of BE cells; format: cell-based; conditions: 2 h drug treatment, colonies after 10 days, concentration at which there is a 1% cell survival
Description: as §2, §3

[1] = Releasing group activity: chemical reduction with sodium dithionite monitored by 31P NMR; format: physicochemical; conditions: sodium dithionite 3 equiv, 3:4 CH3CN:0.4 M cacodylate buffer, pH ~7.4, 37° C.
Description: (§4) The quinone was dissolved in CH3CN (0.3 mL, or THF for 16a) and the activating agent (glutathione, or sodium dithionite) was dissolved in cacodylate buffer (0.4 mL, 0.4 M, pH 7.7). The buffer solution was added to the organic solution and the pH of the mixture was adjusted to ˜7.4. The reaction mixture was transferred to a 5-mm NMR tube, and the data acquisition was started (pulse delay 30 μs). Spectra were taken every 2.5 minutes for 0.5 h, then every 5 min for 0.5 h, then every 10 min for 1 h, and time points for each spectrum were assigned from the initiation of the reaction. Chemical shifts are reported relative to the TPPO reference. The temperature of the probe was maintained at 37° C., if necessary, using the Bruker variable temperature unit. The relative concentrations of the intermediates were determined by measuring the peak areas.
Naphthoquinone 15a was reduced with sodium dithionite (3 equiv, 3:4 CH3CN:0.4 M cacodylate buffer, pH˜7.4, 37° C.), and the reaction was followed by ^31P NMR. The resonance for quinone […] at −5.3 ppm disappeared within 5 minutes and was replaced by the resonance for the corresponding phosphoramide mustard at −12.2 ppm.

[2] = Activation by glutathione monitored by 31P NMR; format: physicochemical
Description: as §4
Thus, the following study was conducted to determine whether glutathione would activate compounds of formula I in a similar way. Glutathione, the primary non-protein intracellular thiol, is responsible for maintaining the cellular redox environment and removing potential electrophilic cytotoxins. […] Thus, the reaction of 15a with glutathione (3 equiv, 1:1.3 CH3CN:0.4 M cacodylate buffer, pH˜7.5, RT) was monitored by ^31P NMR.

human tumor cell lines = assay: Growth inhibition, MTT assay, series of human tumor cell lines (all cell lines); format: cell-based; conditions: all cell lines of Table 2, 72-h drug exposure
Description: as §1

[3] = Homo sapiens, MDA-MB-231, MDA231, 72-h drug exposure

Compound: 3-(5-Methoxy-1-methyl-4,7-indolequinonyl)methyl N,N-bis(2-bromoethyl)phosphorodiamidate [Compound 4]
- IC50 (MDA231 (breast); MDA231, 72-h drug exposure): 0.194 µM
- IC50 (PC-3 (prostate)): 0.649 µM
- IC50 (HT-29 (colon)): 0.241 µM
- IC50 (PaCa-2 (pancreas)): 0.215 µM
- IC50 (A498 (kidney)): 0.998 µM
- IC50 (A549 (lung)): 0.398 µM
- IC50 (UMUC3 (bladder)): 0.01 µM

Compound: COC1=CC(=O)c2c(cc(COP(=O)(N(C)CCBr)N(C)CCBr)n2C)C1=O [Compound 5, 2-(5-Methoxy-1-methyl-4,7-indolequinonyl)methyl bis[N-methyl-N-(2-bromoethyl)]phosphorodiamidate]
- IC50 (IGROV (ovarian); Homo sapiens): 7.59 µM
- IC50 (MDA231 (breast); [3]): 0.21 µM
- IC50 (PC-3 (prostate); Homo sapiens): 0.42 µM
- IC50 (HT-29 (colon); Homo sapiens): 0.093 µM
- IC50 (PaCa-2 (pancreas); Homo sapiens): 0.013 µM
- IC50 values in words (PaCa-2 (pancreas)): low nanomolar range
- IC50 (A498 (kidney); Homo sapiens): 2.65 µM
- IC50 (A549 (lung); Homo sapiens): 0.26 µM
- IC50 (UMUC3 (bladder); Homo sapiens): 0.014 µM
- IC50 values in words (UMUC3 (bladder)): low nanomolar range

Compound: COC1=CC(=O)c2c(cc(COP(N)(=O)N(CCCl)CCCl)n2C)C1=O (stereo not shown) [Compound 6a, 2-(5-Methoxy-1-methyl-4,7-indolequinonyl)methyl N,N-bis(2-chloroethyl)phosphorodiamidate]
- IC50 (IGROV (ovarian)): 1.7 µM
- IC50 (MDA231 (breast); MDA231, 72-h drug exposure): 3.5 µM
- IC50 (PC-3 (prostate)): 0.17 µM
- IC50 (HT-29 (colon)): 0.34 µM
- IC50 values in words (PaCa-2 (pancreas)): low nanomolar range
- IC50 (PaCa-2 (pancreas)): 0.006 µM
- IC50 (A498 (kidney)): 0.862 µM
- IC50 (A549 (lung)): 0.203 µM
- IC50 values in words (UMUC3 (bladder)): low nanomolar range
- IC50 (UMUC3 (bladder)): 0.022 µM

Compound: COC1=CC(=O)c2c(cc(COP(N)(=O)N(CCBr)CCBr)n2C)C1=O (stereo not shown) [Compound 6b, 2-(5-Methoxy-1-methyl-4,7-indolequinonyl)methyl N,N-bis(2-bromoethyl)phosphorodiamidate]
- IC50 (IGROV (ovarian)): 1.47 µM
- IC50 (MDA231 (breast); MDA231, 72-h drug exposure): 1.63 µM
- IC50 (PC-3 (prostate)): 0.195 µM
- IC50 (HT-29 (colon)): 0.061 µM
- IC50 values in words (PaCa-2 (pancreas)): low nanomolar range
- IC50 (PaCa-2 (pancreas)): 0.035 µM
- IC50 (A498 (kidney)): 0.199 µM
- IC50 (A549 (lung)): 0.009 µM
- IC50 values in words (UMUC3 (bladder)): low nanomolar range
- IC50 (UMUC3 (bladder)): 0.001 µM

Compound: NP(=O)(OCC1=CC(=O)c2ccccc2C1=O)N(CCCl)CCCl (stereo not shown) [Compound 15a, 2-(1,4-Naphthoquinonyl)methyl N,N-bis(2-chloroethyl) phosphorodiamidate]
- LC99 (HT-29 cells): 11 µM
- LC99 (BE cells): 13 µM
- time until quinone resonance disappeared and was replaced by phosphoramide mustard resonance [1]: ≤ 5 min
- time until quinone resonance disappeared and was replaced by phosphorodiamidate anion resonance ([2]; glutathione 3 equiv, 1:1.3 CH3CN:0.4 M cacodylate buffer, pH ~7.5, RT): ≤ 4 min
- activation with one equivalent of glutathione, in words ([2]; only one equivalent of glutathione, compared with 3 equiv): essentially identical

Compound: CC1=C(COP(N)(=O)N(CCCl)CCCl)C(=O)c2ccccc2C1=O (stereo not shown) [Compound 15b, 2-(3-Methyl-1,4-naphthoquinonyl)methyl N,N-bis(2-chloroethyl) phosphorodiamidate]
- LC99 (HT-29 cells): 2.1 µM
- LC99 (BE cells): 1.0 µM

Compound: CSC1=C(COP(N)(=O)N(CCCl)CCCl)C(=O)c2ccccc2C1=O (stereo not shown) [Compound 15c, 2-(3-Thiomethyl-1,4-naphthoquinonyl)methyl N,N-bis(2-chloroethyl)phosphorodiamidate]
- LC99 (HT-29 cells): 4.2 µM
- LC99 (BE cells): 5.9 µM

Compound: NP(=O)(OCC1=C(Br)C(=O)c2ccccc2C1=O)N(CCCl)CCCl (stereo not shown) [Compound 15d, 2-(3-Bromo-1,4-naphthoquinonyl)methyl N,N-bis(2-chloroethyl)phosphorodiamidate]
- LC99 (HT-29 cells): 4.1 µM
- LC99 (BE cells): 3.3 µM

Compound: CC1=C(COP(N)(=O)N(CCBr)CCBr)C(=O)c2ccccc2C1=O (stereo not shown) [Compound 16b, 2-(3-Methyl-1,4-naphthoquinonyl)methyl N,N-bis(2-bromoethyl) phosphorodiamidate]
- LC99 (HT-29 cells): 1.7 µM
- LC99 (BE cells): 1.2 µM

Compound: O=C1C=C(COP(=O)(NCCCl)NCCCl)C(=O)c2ccccc21 [Compound 17, 2-(1,4-Naphthoquinonyl)methyl bis[N-(2-chloroethyl)] phosphorodiamidate]
- LC99 (HT-29 cells): 14 µM
- LC99 (BE cells): 7.8 µM

Compound: CN(CCBr)P(=O)(OCC1=CC(=O)c2ccccc2C1=O)N(C)CCBr [Compound 40a, 2-(1,4-Naphthoquinonyl)methyl bis[N-methyl-N-(2-bromoethyl)]phosphorodiamidate]
- LC99 (HT-29 cells): 4.5 µM
- LC99 (BE cells): 1.2 µM
- IC50 (IGROV (ovarian)): 2.05 µM
- IC50 (MDA231 (breast); MDA231, 72-h drug exposure): 3.23 µM
- IC50 (PC-3 (prostate)): 2.56 µM
- IC50 (HT-29 (colon)): 5.92 µM
- IC50 (PaCa-2 (pancreas)): 2.3 µM
- IC50 (A498 (kidney)): 4.46 µM
- IC50 (A549 (lung)): 11.2 µM
- IC50 (UMUC3 (bladder)): 9.95 µM
- IC50 in words, against all cell lines (human tumor cell lines): low micromolar range

Compound: CC1=C(COP(=O)(N(C)CCBr)N(C)CCBr)C(=O)c2ccccc2C1=O [Compound 40b, 2-(3-Methyl-1,4-naphthoquinonyl)methyl bis[N-methyl-N-(2-bromoethyl)] phosphorodiamidate]
- LC99 (HT-29 cells): 1.5 µM
- LC99 (BE cells): 0.44 µM

Compound: CN(CCCl)P(=O)(OCC1=CC(=O)c2ccccc2C1=O)N(C)CCCl [Compound 40c, 2-(1,4-Naphthoquinonyl)methyl bis[N-methyl-N-(2-chloroethyl)]phosphorodiamidate]
- LC99 (HT-29 cells): 4.5 µM
- LC99 (BE cells): 2.8 µM

Compound: COC1=CC(=O)c2c(c(COP(=O)(N(C)CCBr)N(C)CCBr)cn2C)C1=O [Compound 47, 3-(5-Methoxy-1-methyl-4,7-indolequinonyl)-methyl bis[N-methyl-N-(2-bromoethyl)] phosphorodiamidate]
- LC99 (HT-29 cells): 0.07 µM
- LC99 (BE cells): 0.14 µM
- IC50 (IGROV (ovarian); Homo sapiens): 0.494 µM
- IC50 (MDA231 (breast); [3]): 0.04 µM
- IC50 (PC-3 (prostate); Homo sapiens): 0.066 µM
- IC50 (HT-29 (colon); Homo sapiens): 0.065 µM
- IC50 (PaCa-2 (pancreas); Homo sapiens): 0.025 µM
- IC50 values in words (PaCa-2 (pancreas)): low nanomolar range
- IC50 (A498 (kidney); Homo sapiens): 0.344 µM
- IC50 (A549 (lung); Homo sapiens): 0.023 µM
- IC50 (UMUC3 (bladder); Homo sapiens): 0.002 µM
- IC50 values in words (UMUC3 (bladder)): low nanomolar range
